Data from patent US6638509B1, “Toxin conjugates” (Kyowa Hakko Kogyo, Co., Ltd., priority 1995, dated 2003).

Tested on: Human myeloma SK-Ly-18 cells
Test: Therapeutic effect on transplanted tumor in nude mice (Test Example 4)
Format: in vivo, BALB/C nu/nu mice
Conditions: intravenous, amount corresponding to 7.5 mg/kg ADM, on the 7th day after transplantation, compared with control group, FIG. 2
Method: Human myeloma SK-Ly-18 cells were suspended in RPMI-1640 medium containing 10% fetal calf serum at a concentration of 2×10^8 cells/ml, and the suspension was mixed with Matrigel (registered trademark; Becton Dickinson Labware, USA) in the ratio of 1:1 (v/v). The mixture (0.1 ml, 1×10^7 cells/mouse) was subcutaneously transplanted into BALB/C nu/nu mice (Clea Japan, Inc.). On the 7th day after the tumor transplantation, a drug-monoclonal antibody conjugate (amount corresponding to 7.5 mg/kg ADM) or ADM (7.5 mg/kg) was intravenously administered to the mice divided in groups each consisting of 5. A control group was given physiological saline in the same manner. The major axis and the minor axis of tumor were measured at intervals, and the tumor volume was calculated as an approximation value of an ellipsoid according to the following equation.
Tumor Volume (mm^3)=(a×b^2)/2
a: major axis (mm) b: minor axis (mm)
The therapeutic effect on the transplanted tumor was evaluated in terms of V/V0, the ratio of the tumor volume on the day of evaluation (V) to that on the day of drug administration (V0).

In the case of `COc1cccc2c1C(=O)c1c(O)c3c(c(O)c1C2=O)C[C@@](O)(C(=O)CO)C[C@@H]3O[C@H]1C[C@H](N)[C@H](O)[C@H](C)O1` [ADM, Adriamycin, reference compound], the “tumor growth inhibiting effect (V/V0)” value is reported as “a growth inhibiting effect was not observed”.
